# Measurements published in paper PMC9613470, “Diverse MarR bacterial regulators of auxin catabolism in the plant microbiome” (Nature Microbiology, 2022).
# Several values for one entry are separate records, joined by “and”; a condition that tells them apart may be missing. Equal values may be shown once. Entries after “also recorded” stand apart in the source; their conditions may differ.
# Experiments:
# [1] = system: IAA degradation locus; experiment: RNA-seq of V. paradoxus CL14 strains with and without IAA; format: cell-based, Variovorax paradoxus CL14; conditions: Fig 2 f; for CL14wt_IAA (RNA-seq expression value): CL14 wild type with IAA; for d50_IAA (RNA-seq expression value): ΔMarR_50 with IAA; for d73_IAA (RNA-seq expression value): ΔMarR_73 with IAA; for diadDE_IAA (RNA-seq expression value): ΔiadDE with IAA
# Procedure: V. paradoxus CL14 was grown in 5 ml cultures of M9 minimal medium supplemented with 15 mM succinate and 0.5% (v/v) ethanol alone or containing IAA. IAA was at a final concentration of 0.1 mg ml^−1 in the medium to which it was added. Cultures were prepared at a starting OD600 of 0.02 and incubated at 28 °C, shaking at 250 r.p.m. Cells from all samples were collected for RNA-seq at 18 h to ensure IAA was still present in the cultures of strains that degraded IAA most rapidly. Cells were pelleted by centrifuging the culture at 4,200 × g for 15 min and removing the supernatant. Cell pellets were frozen at −80 °C before RNA extraction. To extract RNA, cells were lysed in TRIzol reagent (Invitrogen) according to manufacturer instructions for lysis and phase separation. After these steps, RNA was purified from the aqueous phase using the RNeasy mini kit (Qiagen) including the optional on-column DNase digestion with RNase-free DNase set (Qiagen). Total RNA was quantified using the Qubit 2.0 fluorometer (Invitrogen) and RNA-seq libraries were prepared using the Universal Prokaryotic RNA-Seq Prokaryotic AnyDeplete kit (Tecan) according to manufacturer instructions. The resulting libraries were pooled and sequenced on the Illumina HiSeq4000 to generate 50 bp single-end reads.
# The V. paradoxus CL14 RNA-seq sequence data were analysed as described previously. Briefly, the raw reads were mapped to the V. paradoxus CL14 genome (fasta file available at https://github.com/isaisg/variovoraxRGI/blob/master/rawdata/2643221508.fna) using bowtie2[53] with the ‘very sensitive’ flag. Hits to each individual coding sequence were counted and annotated using the function featureCounts from the R package Rsubread[54], inputting the V. paradoxus CL14 gff file (available at https://github.com/isaisg/variovoraxRGI/blob/master/rawdata/2643221508.gff) and using the default parameters with the flag allowMultiOverlap = FALSE. Finally, DESeq2[55] was used to estimate Differentially Expressed Genes (DEGs) between treatments, with the corresponding fold-change estimates and False Discovery Rate (FDR) adjusted P values. For visualization purposes, we performed z-score standardization of each gene across samples and we visualized this standardized expression values utilizing a heat map constructed using ggplot2[56].
# [2] = molecular target: Acinetobacter baumannii MarR_Ab (Acinetobacter baumannii, UniProt A0ABX6CGA9); experiment: ITC IAA binding to MarR_Ab
# Procedure: (§1) The coding sequence for each gene can be found in Supplementary Table 10. MarR expression plasmids were synthesized as codon-optimized genes for E. coli expression by BioBasic in the pLIC-His N-term vector (pMCSG7) and transformed into E. coli BL21 (DE3) Gold cells for expression. […] At an OD600 of 0.8, protein expression was induced by the addition of 0.1 mM IPTG and incubation continued overnight. Cells were collected by centrifugation at 4,500 × g for 20 min at 4 °C in a Sorvall (model RC-3B) swinging bucket centrifuge. Cell pellets were resuspended in buffer A (20 mM potassium phosphate, pH 7.4, 50 mM imidazole, 500 mM NaCl), DNase, lysozyme and a Roche Complete EDTA-free protease inhibitor tablet. Resuspended cells were sonicated and clarified via centrifugation at 17,000 × g for 60 min in a Sorvall (model RC-5B) swinging bucket centrifuge. The lysate was applied to a nickel-nitrilotriacetic acid HP column (GE Healthcare) on an Aktaxpress Fast Performance Liquid Chromatography (FPLC) system (Amersham Bioscience) and washed with buffer A. Protein was eluted with buffer B (20 mM potassium phosphate, pH 7.4, 500 mM imidazole, 500 mM NaCl). Fractions containing the protein of interest were combined and passed over a HiLoadTM 16/60 SuperdexTM 200 gel filtration column. Proteins were eluted in S200 buffer (20 mM HEPES, pH 7.4, 300 mM NaCl). […]
# [3] = molecular target: Bradyrhizobium japonicum MarR_Bj2; experiment: ITC IAA binding to MarR_Bj2; conditions: 25 °C, IadR2 (MarR_50-like)
# Procedure: as §1
# [4] = molecular target: Variovorax paradoxus CL14 MarR_50; experiment: ITC IAA binding to MarR_50 (IadR2); conditions: 25 °C, IadR2 (MarR_50-like)
# Procedure: as §1
# [5] = molecular target: Bradyrhizobium japonicum MarR_Bj1 (Bradyrhizobium japonicum, UniProt A0A0A3XYM8); experiment: ITC IAA binding to MarR_Bj1; conditions: 25 °C, IadR (MarR_73-like)
# Procedure: as §1
# [6] = molecular target: MarR_73 S28A R46A (Variovorax paradoxus, UniProt C5CSP2, R46A/S28A); conditions: ITC, 25 °C; mutant S28A R46A
# Procedure: as §1
# [7] = molecular target: Pseudomonas putida 1290 MarR_iacR (Pseudomonas putida, UniProt B0FXI7); experiment: ITC IAA binding to MarR_iacR; conditions: 25 °C, IacR
# Procedure: as §1
# [8] = molecular target: Variovorax paradoxus CL14 MarR_73 (Variovorax paradoxus, UniProt C5CSP2); experiment: biochemical; format: binding; conditions: ITC, 25 °C, 20 mM HEPES pH 7.4, 50 mM NaCl, 0.5% DMSO, mean of two measurements ± standard error
# Procedure: The coding sequence for each gene can be found in Supplementary Table 10. MarR expression plasmids were synthesized as codon-optimized genes for E. coli expression by BioBasic in the pLIC-His N-term vector (pMCSG7) and transformed into E. coli BL21 (DE3) Gold cells for expression. […] At an OD600 of 0.8, protein expression was induced by the addition of 0.1 mM IPTG and incubation continued overnight. Cells were collected by centrifugation at 4,500 × g for 20 min at 4 °C in a Sorvall (model RC-3B) swinging bucket centrifuge. Cell pellets were resuspended in buffer A (20 mM potassium phosphate, pH 7.4, 50 mM imidazole, 500 mM NaCl), DNase, lysozyme and a Roche Complete EDTA-free protease inhibitor tablet. Resuspended cells were sonicated and clarified via centrifugation at 17,000 × g for 60 min in a Sorvall (model RC-5B) swinging bucket centrifuge. The lysate was applied to a nickel-nitrilotriacetic acid HP column (GE Healthcare) on an Aktaxpress Fast Performance Liquid Chromatography (FPLC) system (Amersham Bioscience) and washed with buffer A. Protein was eluted with buffer B (20 mM potassium phosphate, pH 7.4, 500 mM imidazole, 500 mM NaCl). Fractions containing the protein of interest were combined and passed over a HiLoadTM 16/60 SuperdexTM 200 gel filtration column. Proteins were eluted in S200 buffer (20 mM HEPES, pH 7.4, 300 mM NaCl). Fractions were combined and concentrated for long-term storage at −80 °C.
# All ITC measurements were performed at 25 °C using an Auto-ITC200 microcalorimeter (MicroCal/GE Healthcare). The buffer employed was 20 mM HEPES, pH 7.4, 50 mM NaCl and 0.5% dimethly sulfoxide (DMSO) for protein/ligand binding and 20 mM HEPES, pH 7.4 and 300 mM NaCl for DNA/protein binding experiments. For ligand binding experiments, the calorimetry cell (volume […]) was loaded with MarR wild-type, mutant or homologue protein at a concentration of 50 μM. The syringe was loaded with a ligand concentration of 0.5 or 2 mM. […] A typical injection protocol included a single 0.2 μl first injection followed by 20 1.5 μl injections of the syringe sample into the calorimetry cell. The spacing between injections was kept at 180 s and the reference power at 8 μcal s^−1. […] Two independent ITC measurements were performed for each condition.
# Chain of Variovorax paradoxus CL14 MarR_73 (C5CSP2 entry or part of it): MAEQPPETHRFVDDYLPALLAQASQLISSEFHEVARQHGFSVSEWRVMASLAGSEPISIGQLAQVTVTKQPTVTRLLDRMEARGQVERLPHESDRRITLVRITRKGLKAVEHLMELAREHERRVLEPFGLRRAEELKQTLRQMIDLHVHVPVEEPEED
# Chain of Pseudomonas putida 1290 MarR_iacR (B0FXI7 whole entry): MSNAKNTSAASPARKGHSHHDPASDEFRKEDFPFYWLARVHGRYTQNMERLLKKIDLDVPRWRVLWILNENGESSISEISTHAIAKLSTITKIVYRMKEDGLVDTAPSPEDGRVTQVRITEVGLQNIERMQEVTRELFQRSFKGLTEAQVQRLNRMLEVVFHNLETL
# Chain of Bradyrhizobium japonicum MarR_Bj1 (A0A0A3XYM8 entry or part of it): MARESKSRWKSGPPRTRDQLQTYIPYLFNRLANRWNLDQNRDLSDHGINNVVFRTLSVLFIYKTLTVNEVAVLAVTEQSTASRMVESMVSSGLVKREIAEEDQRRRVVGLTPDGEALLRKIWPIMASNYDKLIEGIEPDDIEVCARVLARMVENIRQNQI
# Chain of MarR_73 S28A R46A (C5CSP2 1-158, stated change not applied): as the sequence (C5CSP2 entry or part of it) above
structure (smiles),measurement,setting,value
"O=C(O)Cc1c[nH]c2ccccc12 [IAA, indole-3-acetic acid]",CL14wt_IAA (RNA-seq expression value),[1]; Gene 2643611541,-0.7473
same,d50_IAA (RNA-seq expression value),[1]; Gene 2643611541,0.6042
same,d73_IAA (RNA-seq expression value),[1]; Gene 2643611541,0.2688
same,diadDE_IAA (RNA-seq expression value),[1]; Gene 2643611541,0.4986
same,CL14wt_IAA (RNA-seq expression value),[1]; Gene 2643611542,-0.07617
same,d50_IAA (RNA-seq expression value),[1]; Gene 2643611542,0.09619
same,d73_IAA (RNA-seq expression value),[1]; Gene 2643611542,0.02449
same,diadDE_IAA (RNA-seq expression value),[1]; Gene 2643611542,0.1314
same,CL14wt_IAA (RNA-seq expression value),[1]; Gene 2643611543,-0.001618
same,d50_IAA (RNA-seq expression value),[1]; Gene 2643611543,0.2002
same,d73_IAA (RNA-seq expression value),[1]; Gene 2643611543,0.2405
same,diadDE_IAA (RNA-seq expression value),[1]; Gene 2643611543,0.0895
same,CL14wt_IAA (RNA-seq expression value),[1]; Gene 2643611544,-1.408
same,d50_IAA (RNA-seq expression value),[1]; Gene 2643611544,-0.115
same,d73_IAA (RNA-seq expression value),[1]; Gene 2643611544,0.2327
same,diadDE_IAA (RNA-seq expression value),[1]; Gene 2643611544,0.2436
same,CL14wt_IAA (RNA-seq expression value),[1]; Gene 2643611545,-0.03496
same,d50_IAA (RNA-seq expression value),[1]; Gene 2643611545,0.09136
same,d73_IAA (RNA-seq expression value),[1]; Gene 2643611545,-0.02991
same,diadDE_IAA (RNA-seq expression value),[1]; Gene 2643611545,0.001153
same,Kd,[2],1290 ± 101 nM
same,N1,"[2]; ITC, 25 °C, IacR",0.911 ± 0.011
same,KD1,[3],did not bind; also recorded: No Binding
same,KD1,[4],No Binding
same,N1,[5],1.001 ± 0.069
same,N,[6],1.2 ± 0.2
same,N1,[7],0.590± 0.032
same,Kd,[7]; read-out: KD1,4450 ± 196 nM
same,N (ligand binding stoichiometry to the MarR monomer),[8],0.732 ± 0.036
same,N (ligand binding stoichiometry to the MarR monomer),[8]; listed as Indole-3-Acetic Acid (IAA),0.73 ± 0.04
same,Kd,[8]; KD,410 nM and 408 nM
